Measurements reported in paper PMC9921564, “Novel Indole-Containing Hybrids Derived from Millepachine: Synthesis, Biological Evaluation and Antitumor Mechanism Study” (Molecules, 2023).

Experiments:
[1] = test system: A549 (human non-small-cell-lung cancer cell line); test: CCK-8 antiproliferative assay, A549; format: cell-based; conditions: 48 h, read-out: IC50, Mean ± SE, A549
[2] = test system: A2780 (human ovarian cancer cell line); test: CCK-8 cytotoxicity, A2780; format: cell-based; conditions: 48 h, read-out: IC50, Mean ± SE, A2780
Method: (§1) Besides the high cytotoxicity, drug resistance is the other limiting factor of chemotherapeutics. In this study, the cytotoxicities of compound 14b towards five kinds of drug-resistant cancer cell lines were also evaluated. Except three kinds of cell lines that are resistant to three drugs commonly used in clinical practice, two kinds of cell lines that are resistant to MTAs were also evaluated.
(§2) A549 (non-small-cell-lung cancer cell line), Caski (human epithelial cervical cancer cell line), HepG2 (human liver carcinoma cell line), MCF-7 (human breast carcinoma cell line), C42B (human prostate cancer line C42B), L-02 (human normal hepatocytes), RWPE-1 (human prostate epithelial cells) and MCF-10A (human normal mammary epithelial cells) were obtained from National Collection of Authenticated Cell Cultures (Shanghai, China). […]
(§3) After 24 h, the medium containing different concentrations of tested compounds were added for another 48 h. […] The optical density was recorded with a microplate reader at 570 nm (Thermo Scientific, Varioskan LUX). All the experiments were repeated independently at least three times and the IC50 values were calculated […]

[3] = test system: Caski (human epithelial cervical cancer cell line); test: CCK-8 antiproliferative assay, Caski; format: cell-based; conditions: Ca-Ski, 48 h, read-out: IC50, Mean ± SE, Caski
[4] = biological target: tubulin (colchicine binding site) (Sus scrofa, UniProt P02554); test: colchicine competitive inhibition (binding) assay
Method: Tubulin–microtubule homeostasis is crucial for cell mitosis.
Figure 2 Effect of compound 14b on tubulin. […] The experiments were performed at least three times, and representative images are shown. Scale bars are 10 μm. […] The backbone of tubulin is shown in ribbon representation (α-tubulin, yellow; β-tubulin, green). […] The data were shown as mean ± SE (standard error) of at least three independent experiments.

[5] = test system: HCT-8 (human ileocecum carcinoma cell line); test: CCK-8 cytotoxicity, HCT-8; format: cell-based; conditions: 48 h, read-out: IC50, Mean ± SE, HCT-8
Method: as §1, §2, §3

[6] = test system: L-02 (normal human hepatocytes); test: CCK-8 cytotoxicity, L-02 normal cells; format: cell-based
Excerpt: A549 (non-small-cell-lung cancer cell line), Caski (human epithelial cervical cancer cell line), HepG2 (human liver carcinoma cell line), MCF-7 (human breast carcinoma cell line), C42B (human prostate cancer line C42B), L-02 (human normal hepatocytes), RWPE-1 (human prostate epithelial cells) and MCF-10A (human normal mammary epithelial cells) were obtained from National Collection of Authenticated Cell Cultures (Shanghai, China). A549/CDDP (A549 cell line resistant to cisplatin), C42B/ENZR (C42b cell line resistant to Enzalutamide), MCF-7/DOX (MCF-7 cell line resistant to doxorubicin), A2780/TAX (human ovarian cancer cell line A2780 resistant to taxol) and HCT-8/VCR (human ileocecum carcinoma cell lines HCT-8 resistant to vincristine) were kindly provided by Professor Junjian Wang and Professor Xingshu Li at Sun Yat-Sen University, China. […]
as §3

COc1ccc(C(=O)c2ccc3c(ccn3C)c2)c2c1C=CC(C)(C)O2 [compound 14b, (5-methoxy-2,2-dimethyl-2H-chromen-8-yl)(1-methyl-1H-indol-5-yl)methanone]
IC50 [1]: 22 ± 2 nM
IC50 [2]: 36 ± 4 nM
IC50 [3]: 37 ± 3 nM
IC50 [4]: 1040 ± 20 nM
IC50 [5]: 89 ± 15 nM
IC50 ([6]; Homo sapiens, Hepatocyte, 48 h, CCK-8, normal cells, read-out: IC50, Mean ± SE, L-02): 1260 ± 214 nM
Selectivity Ratio ([6]; IC50 L-02 / IC50 Hep-G2): 16.97
